The record followed here is patent publication US11312712B2, “Azabenzimidazoles and their use as AMPA receptor modulators” (Janssen Pharmaceutica NV, priority 2015, dated 2022).

The assay has as its target GluA1o-γ8 (GRIA1o-CACNG8 fusion construct) (Homo sapiens (Human), UniProt P42261+Q8WXS5). In words: Calcium flux assay (FLIPR), inhibition of TARP γ8 dependent AMPA receptor activity. As to conditions: GluA1o-γ8 (GRIA1o-CACNG8 fusion) in HEK293 cells, calcium flux after 15 μM glutamate. The format is cell-based. An outline of the steps: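 Glutamate (15 μM) was added to a stable HEK293 line carrying the GluA1o–γ8 fusion, which had been preincubated with compound and calcium dye in HEPES buffer, pH 7.4. Normalized FLIPR fluorescence (no compound vs 10 μM CP465022) was fitted with four parameters; pIC50 is the midpoint's negative log.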

GluA1o-γ8 (GRIA1o-CACNG8 fusion construct), sequence (P42261 other isoform, or with tags, fused parts or gaps): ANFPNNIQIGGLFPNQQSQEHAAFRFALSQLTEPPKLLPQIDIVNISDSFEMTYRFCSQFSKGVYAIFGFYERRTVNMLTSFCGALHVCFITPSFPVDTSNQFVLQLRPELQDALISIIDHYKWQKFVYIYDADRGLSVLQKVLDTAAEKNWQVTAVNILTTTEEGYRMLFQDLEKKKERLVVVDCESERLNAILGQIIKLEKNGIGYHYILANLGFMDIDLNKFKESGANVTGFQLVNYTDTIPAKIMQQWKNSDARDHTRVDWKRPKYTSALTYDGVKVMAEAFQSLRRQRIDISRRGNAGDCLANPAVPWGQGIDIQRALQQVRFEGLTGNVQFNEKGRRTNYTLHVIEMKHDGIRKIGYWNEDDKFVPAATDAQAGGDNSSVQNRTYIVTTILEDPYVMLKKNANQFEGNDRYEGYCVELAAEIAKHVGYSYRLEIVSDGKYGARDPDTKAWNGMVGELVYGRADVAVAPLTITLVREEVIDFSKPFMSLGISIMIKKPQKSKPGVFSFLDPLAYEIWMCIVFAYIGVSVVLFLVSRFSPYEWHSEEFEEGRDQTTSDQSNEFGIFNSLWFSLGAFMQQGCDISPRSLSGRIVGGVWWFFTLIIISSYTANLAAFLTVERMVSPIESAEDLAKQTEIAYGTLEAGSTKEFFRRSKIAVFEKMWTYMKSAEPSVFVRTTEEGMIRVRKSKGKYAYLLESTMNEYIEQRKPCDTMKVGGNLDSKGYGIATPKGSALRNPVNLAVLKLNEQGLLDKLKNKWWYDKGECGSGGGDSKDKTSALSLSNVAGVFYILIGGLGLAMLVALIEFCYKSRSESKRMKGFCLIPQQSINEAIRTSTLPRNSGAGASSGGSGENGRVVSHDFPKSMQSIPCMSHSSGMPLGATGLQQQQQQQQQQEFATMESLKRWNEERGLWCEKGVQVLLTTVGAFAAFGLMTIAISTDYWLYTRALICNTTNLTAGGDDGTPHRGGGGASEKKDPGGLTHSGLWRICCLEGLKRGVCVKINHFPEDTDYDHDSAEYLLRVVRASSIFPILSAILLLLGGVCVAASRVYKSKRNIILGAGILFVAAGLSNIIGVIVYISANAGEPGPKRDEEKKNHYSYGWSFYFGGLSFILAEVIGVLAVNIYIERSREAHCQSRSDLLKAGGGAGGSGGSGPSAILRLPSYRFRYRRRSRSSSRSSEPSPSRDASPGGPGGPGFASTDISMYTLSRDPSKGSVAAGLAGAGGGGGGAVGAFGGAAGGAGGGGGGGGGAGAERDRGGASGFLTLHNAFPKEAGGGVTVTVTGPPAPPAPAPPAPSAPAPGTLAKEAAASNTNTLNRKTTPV

As a reminder, the IC50 is the point on the concentration scale where inhibition reaches its midpoint. For the molecule `Cc1cc(-c2nc3ccc(C(F)(F)F)nc3n2-c2ccc3[nH]ncc3c2)ccc1F` [Example 121, 2-(4-Fluoro-3-methyl-phenyl)-3-(1H-indazol-5-yl)-5-(trifluoromethyl)imidazo[4,5-b]pyridine], the concentration for half-maximal inhibition (IC50) was 0.501 nM.

With `Cc1cccc(-c2nc3ccc(C(F)(F)F)nc3n2-c2ccc3[nH]ncc3c2)c1` [Example 122, 3-(1H-Indazol-5-yl)-2-(m-tolyl)-5-(trifluoromethyl)imidazo[4,5-b]pyridine], the IC50 was 0.316 nM.

As for `Cc1ccc(-c2nc3ccc(C(F)(F)F)nc3n2-c2ccc3[nH]ncc3c2)cc1` [Example 123, 3-(1H-Indazol-5-yl)-2-(p-tolyl)-5-(trifluoromethyl)imidazo[4,5-b]pyridine], the 50% inhibitory concentration (IC50) is 3.98 nM.

As for `FC(F)(F)c1ccc2nc(-c3ccncc3)n(-c3ccc4[nH]ncc4c3)c2n1` [Example 124, 3-(1H-Indazol-5-yl)-2-(4-pyridyl)-5-(trifluoromethyl)imidazo[4,5-b]pyridine], the IC50 was 12.6 nM.

Consider `FC(F)(F)c1nc2ccc(C3CC3)nc2n1-c1ccc2[nH]ncc2c1` [Example 125, 5-Cyclopropyl-3-(1H-indazol-5-yl)-2-(trifluoromethyl)imidazo[4,5-b]pyridine], for which the IC50 was 0.794 nM.

Regarding `CN(C)C(=O)c1nc2ccc(C(F)(F)F)nc2n1-c1ccc2[nH]ncc2c1` [Example 126, 3-(1H-Indazol-5-yl)-N,N-dimethyl-5-(trifluoromethyl)imidazo[4,5-b]pyridine-2-carboxamide], the IC50 was 794 nM.

Take `CNC(=O)c1nc2ccc(C(F)(F)F)nc2n1-c1ccc2[nH]ncc2c1` [Example 127, 3-(1H-Indazol-5-yl)-N-methyl-5-(trifluoromethyl)imidazo[4,5-b]pyridine-2-carboxamide]: the concentration for half-maximal inhibition (IC50) was 794 nM.

With `O=C(NC1CC1)c1nc2ccc(C(F)(F)F)nc2n1-c1ccc2[nH]ncc2c1` [Example 128, N-Cyclopropyl-3-(1H-indazol-5-yl)-5-(trifluoromethyl)imidazo[4,5-b]pyridine-2-carboxamide], the concentration for half-maximal inhibition (IC50) is 501 nM.

As to `COc1nc2ccc(C(F)(F)F)nc2n1-c1ccc2[nH]ncc2c1` [Example 129, 3-(1H-Indazol-5-yl)-2-methoxy-5-(trifluoromethyl)imidazo[4,5-b]pyridine], the IC50 is 15.8 nM.

Turning to `CCNc1nc2ccc(C(F)(F)F)nc2n1-c1ccc2[nH]ncc2c1` [Example 130, N-Ethyl-3-(1H-indazol-5-yl)-5-(trifluoromethyl)imidazo[4,5-b]pyridin-2-amine], the half-maximal inhibitory concentration (IC50) was 100 nM.

Regarding `FC(F)(F)c1ccc2nc(NC3CCCCC3)n(-c3ccc4[nH]ncc4c3)c2n1` [Example 131, N-Cyclohexyl-3-(1H-indazol-5-yl)-5-(trifluoromethyl)imidazo[4,5-b]pyridin-2-amine], the 50% inhibitory concentration (IC50) was 158 nM.

On to `O=c1[nH]c2ccc(-n3c(C4CCC4)nc4ccc(C(F)(F)F)nc43)cc2s1` [Example 132, 6-[2-Cyclobutyl-5-(trifluoromethyl)imidazo[4,5-b]pyridin-3-yl]-3H-1,3-benzothiazol-2-one], for which the concentration for half-maximal inhibition (IC50) is 0.0631 nM.

Consider `Cc1cc(N2CCOCC2)c2nc(C3CCC3)n(-c3ccc4[nH]c(=O)sc4c3)c2n1` [Example 133, 6-(2-Cyclobutyl-5-methyl-7-morpholino-imidazo[4,5-b]pyridin-3-yl)-3H-1,3-benzothiazol-2-one], for which the IC50 is 1 nM.

Regarding `O=c1[nH]c2ccc(-n3c(C(F)(F)F)nc4ccc(C(F)(F)F)nc43)cc2s1` [Example 134, 6-[2,5-Bis(trifluoromethyl)imidazo[4,5-b]pyridin-3-yl]-3H-1,3-benzothiazol-2-one], the IC50 is 0.0794 nM.

Regarding `Cc1ccnc2c1nc(C1CC1)n2-c1ccc2[nH]c(=O)sc2c1` [Example 135, 6-(2-Cyclopropyl-7-methyl-imidazo[4,5-b]pyridin-3-yl)-3H-1,3-benzothiazol-2-one], the 50% inhibitory concentration (IC50) is 79.4 nM.

Regarding `Cc1cc(N2CCOCC2)c2nc(C3CC3)n(-c3ccc4[nH]c(=O)sc4c3)c2n1` [Example 136, 6-(2-Cyclopropyl-5-methyl-7-morpholino-imidazo[4,5-b]pyridin-3-yl)-3H-1,3-benzothiazol-2-one], the IC50 was 5.01 nM.

Regarding `Cc1cc(Cl)nc2c1nc(C1CCC1)n2-c1ccc2[nH]ncc2c1` [Example 137, 5-Chloro-2-cyclobutyl-3-(1H-indazol-5-yl)-7-methyl-imidazo[4,5-b]pyridine], the IC50 is 0.501 nM.

`FC(F)(F)c1ccc2nc(C3CCC3)n(-c3cc(Br)c4[nH]ncc4c3)c2n1` [Example 138, 3-(7-Bromo-1H-indazol-5-yl)-2-cyclobutyl-5-(trifluoromethyl)imidazo[4,5-b]pyridine]: the half-maximal inhibitory concentration (IC50) was 0.02 nM.

Turning to `Cc1ccc2nc(C(F)(F)F)n(-c3ccc4c(c3)CC(=O)N4)c2n1` [Example 139, 5-[5-Methyl-2-(trifluoromethyl)imidazo[4,5-b]pyridin-3-yl]indolin-2-one], the IC50 was 39.8 nM.

Take `O=C1Cc2cc(-n3c(C4CC4)nc4ccc(C(F)F)nc43)ccc2N1` [Example 140, 5-[2-Cyclopropyl-5-(difluoromethyl)imidazo[4,5-b]pyridin-3-yl]indolin-2-one]: the IC50 was 2.51 nM.

Take `CC(C)c1nc2ccc(C(F)F)nc2n1-c1ccc2c(c1)CC(=O)N2` [Example 141, 5-[5-(Difluoromethyl)-2-isopropyl-imidazo[4,5-b]pyridin-3-yl]indolin-2-one]: the concentration for half-maximal inhibition (IC50) was 1.26 nM.

For the molecule `Cc1ccc2nc(C(F)(F)F)n(-c3ccc4[nH]c(=O)sc4c3)c2n1` [Example 142, 6-[5-Methyl-2-(trifluoromethyl)imidazo[4,5-b]pyridin-3-yl]-3H-1,3-benzothiazol-2-one], the half-inhibitory concentration (IC50) was 1.58 nM.

In the case of `Cc1ccc2nc(C3CC3)n(-c3ccc4[nH]c(=O)sc4c3)c2n1` [Example 143, 6-(2-Cyclopropyl-5-methyl-imidazo[4,5-b]pyridin-3-yl)-3H-1,3-benzothiazol-2-one], the IC50 was 1 nM.

Turning to `Cc1ccc2nc(C(C)C)n(-c3ccc4[nH]c(=O)sc4c3)c2n1` [Example 144, 6-(2-Isopropyl-5-methyl-imidazo[4,5-b]pyridin-3-yl)-3H-1,3-benzothiazol-2-one], the half-maximal inhibitory concentration (IC50) was 1.58 nM.

As for `Cc1ccc2nc(C3CCC3)n(-c3ccc4[nH]c(=O)sc4c3)c2n1` [Example 145, 6-(2-Cyclobutyl-5-methyl-imidazo[4,5-b]pyridin-3-yl)-3H-1,3-benzothiazol-2-one], the IC50 was 0.251 nM.

As to `Cc1ccc2nc(C(C)(F)F)n(-c3ccc4c(c3)CC(=O)N4)c2n1` [Example 146, 5-[2-(1,1-Difluoroethyl)-5-methyl-imidazo[4,5-b]pyridin-3-yl]indolin-2-one], the half-maximal inhibitory concentration (IC50) was 39.8 nM.

On to `Cc1ccc2nc(C3CC3)n(-c3ccc4[nH]ncc4c3)c2n1` [Example 147, 2-Cyclopropyl-3-(1H-indazol-5-yl)-5-methyl-imidazo[4,5-b]pyridine], for which the IC50 is 10 nM.

For the molecule `Cc1ccc2nc(C(C)C)n(-c3ccc4[nH]ncc4c3)c2n1` [Example 148, 3-(1H-Indazol-5-yl)-2-isopropyl-5-methyl-imidazo[4,5-b]pyridine], the concentration for half-maximal inhibition (IC50) was 7.94 nM.

In the case of `Cc1ccc2nc(C3CCC3)n(-c3ccc4[nH]ncc4c3)c2n1` [Example 149, 2-Cyclobutyl-3-(1H-indazol-5-yl)-5-methyl-imidazo[4,5-b]pyridine], the IC50 was 0.794 nM.
